# Paper PMC10893631, “Receptor-based pharmacophore modeling, molecular docking, synthesis and biological evaluation of novel VEGFR-2, FGFR-1, and BRAF multi-kinase inhibitors” (BMC Chemistry, 2024)
# Assays:
# Assay in all cases: NCI SRB growth inhibition (single dose 10 µM / five-dose)
# Type in all cases: cell-based, human
# A498 = settings: Homo sapiens; for inhibition at 10 µM: A498 (Renal cancer), read-out: GI%; for GI50: A498, Renal cancer, five-dose
# Summary of the method: (§1)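 Single-dose screen output reported as mean graph; selected compounds then run at five concentrations. Cells pre-grown 24 h before drug addition, fixed with TCA, and quantified by SRB dye binding.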
# A549/ATCC = settings: Homo sapiens; for inhibition at 10 µM: A549/ATCC (Non-small cell lung cancer), read-out: GI%; for GI50: A549/ATCC, Non-small cell lung cancer, five-dose
# Summary of the method: as §1
# ACHN = settings: Homo sapiens; for inhibition at 10 µM: ACHN (Renal cancer), read-out: GI%; for GI50: ACHN, Renal cancer, five-dose
# Summary of the method: as §1
# BT-549 = settings: Homo sapiens; for inhibition at 10 µM: BT-549 (Breast cancer), read-out: GI%; for GI50: BT-549, Breast cancer, five-dose
# Summary of the method: as §1
# CAKI-1 = settings: Homo sapiens; for inhibition at 10 µM: CAKI-1 (Renal cancer), read-out: GI%; for GI50: CAKI-1, Renal cancer, five-dose
# Summary of the method: as §1
# CCRF-CEM = settings: Homo sapiens; for inhibition at 10 µM: CCRF-CEM (Leukemia), read-out: GI%; for GI50: CCRF-CEM, Leukemia, five-dose
# Summary of the method: as §1
# HCC-2998 = settings: Homo sapiens; for inhibition at 10 µM: HCC-2998 (Colon cancer), read-out: GI%; for GI50: HCC-2998, Colon cancer, five-dose
# Summary of the method: as §1
# HCT-15 = settings: Homo sapiens; for inhibition at 10 µM: HCT-15 (Colon cancer), read-out: GI%; for GI50: HCT-15, Colon cancer, five-dose
# Summary of the method: as §1
# HL-60(TB) = settings: Homo sapiens; for inhibition at 10 µM: HL-60(TB) (Leukemia), read-out: GI%; for GI50: HL-60(TB), Leukemia, five-dose
# Summary of the method: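 Test agents were dissolved in DMSO at 400-fold the top final concentration, diluted in medium with 50 µg/mL gentamicin, and tested at five concentrations.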
# HOP-62 = settings: Homo sapiens; for GI50: HOP-62, Non-small cell lung cancer, five-dose; for inhibition at 10 µM: HOP-62 (Non-small cell lung cancer), read-out: GI%
# Summary of the method: as §1
# HS 578 T = settings: Homo sapiens; for inhibition at 10 µM: HS 578 T (Breast cancer), read-out: GI%; for GI50: HS 578 T, Breast cancer, five-dose
# Summary of the method: as §1
# HT29 = settings: Homo sapiens, HT-29; for inhibition at 10 µM: HT29 (Colon cancer), read-out: GI%
# Summary of the method: as §1
# LOX IMVI = settings: Homo sapiens; for inhibition at 10 µM: LOX IMVI (Melanoma), read-out: GI%; for GI50: LOX IMVI, Melanoma, five-dose
# Summary of the method: as §1
# MCF7 = settings: Homo sapiens; for inhibition at 10 µM: MCF7 (Breast cancer), read-out: GI%; for GI50: MCF7, Breast cancer, five-dose
# Summary of the method: as §1
# MDA-MB-231/ATCC = settings: Homo sapiens; for inhibition at 10 µM: MDA-MB-231/ATCC (Breast cancer), read-out: GI%; for GI50: MDA-MB-231/ATCC, Breast cancer, five-dose
# Summary of the method: as §1
# MOLT-4 = settings: Homo sapiens; for inhibition at 10 µM: MOLT-4 (Leukemia), read-out: GI%; for GI50: MOLT-4, Leukemia, five-dose
# Summary of the method: as §1
# NCI-H23 = settings: Homo sapiens; for inhibition at 10 µM: NCI-H23 (Non-small cell lung cancer), read-out: GI%; for GI50: NCI-H23, Non-small cell lung cancer, five-dose
# Summary of the method: as §1
# NCI-H322M = settings: Homo sapiens; for inhibition at 10 µM: NCI-H322M (Non-small cell lung cancer), read-out: GI%; for GI50: NCI-H322M, Non-small cell lung cancer, five-dose
# Summary of the method: as §1
# OVCAR-5 = settings: Homo sapiens; for inhibition at 10 µM: OVCAR-5 (Ovarian cancer), read-out: GI%; for GI50: OVCAR-5, Ovarian cancer, five-dose
# Summary of the method: as §1
# OVCAR-8 = settings: Homo sapiens; for inhibition at 10 µM: OVCAR-8 (Ovarian cancer), read-out: GI%; for GI50: OVCAR-8, Ovarian cancer, five-dose
# Summary of the method: as §1
# PC-3 = settings: Homo sapiens; for inhibition at 10 µM: PC-3 (Prostate cancer), read-out: GI%; for GI50: PC-3, Prostate cancer, five-dose
# Summary of the method: as §1
# SF-268 = settings: Homo sapiens; for inhibition at 10 µM: SF-268 (CNS cancer), read-out: GI%; for GI50: SF-268, CNS cancer, five-dose
# Summary of the method: as §1
# SK-MEL-2 = settings: Homo sapiens; for inhibition at 10 µM: SK-MEL-2 (Melanoma), read-out: GI%; for GI50: SK-MEL-2, Melanoma, five-dose
# Summary of the method: as §1
# SNB-19 = settings: Homo sapiens; for inhibition at 10 µM: SNB-19 (CNS cancer), read-out: GI%; for GI50: SNB-19, CNS cancer, five-dose
# Summary of the method: as §1
# SR = settings: Homo sapiens; for inhibition at 10 µM: SR (Leukemia), read-out: GI%; for GI50: SR, Leukemia, five-dose
# Summary of the method: as §1
# UACC-257 = settings: Homo sapiens; for inhibition at 10 µM: UACC-257 (Melanoma), read-out: GI%; for GI50: UACC-257, Melanoma, five-dose
# Summary of the method: as §1
structure (smiles),measurement,setting,value
"COc1cccc(C=NNC(=O)c2ccc3[nH]c(-c4ccccc4)nc3c2)c1O [8d, N'-(2-hydroxy-3-methoxybenzylidene)-2-phenyl-1H-benzo[d]imidazole-5-carbohydrazide]",inhibition at 10 µM,A498,< 5%
same,GI50,A498,36600 nM
same,inhibition at 10 µM,A549/ATCC,79.8%
same,GI50,A549/ATCC,3390 nM
same,inhibition at 10 µM,ACHN,83.3%
same,GI50,ACHN,2280 nM
same,inhibition at 10 µM,BT-549,96.6%
same,GI50,BT-549,1520 nM
same,inhibition at 10 µM,CAKI-1,91.6%
same,GI50,CAKI-1,2680 nM
same,inhibition at 10 µM,CCRF-CEM,> 100%
same,GI50,CCRF-CEM,300 nM
same,inhibition at 10 µM,HCC-2998,98.5%
same,GI50,HCC-2998,1790 nM
same,inhibition at 10 µM,HCT-15,71.6%
same,GI50,HCT-15,2070 nM
same,inhibition at 10 µM,HL-60(TB),90%
same,GI50,HL-60(TB),2420 nM
same,GI50,HOP-62,1650 nM
same,inhibition at 10 µM,HS 578 T,92.9%
same,GI50,HS 578 T,620 nM
same,inhibition at 10 µM,HT29,84.5%
same,GI50,"HT29; HT29, Colon cancer, five-dose",3410 nM
same,inhibition at 10 µM,LOX IMVI,92.9%
same,GI50,LOX IMVI,1340 nM
same,inhibition at 10 µM,MCF7,98.1%
same,GI50,MCF7,1060 nM
same,inhibition at 10 µM,MDA-MB-231/ATCC,94.4%
same,GI50,MDA-MB-231/ATCC,2410 nM
same,inhibition at 10 µM,MOLT-4,65.8%
same,GI50,MOLT-4,2060 nM
same,inhibition at 10 µM,NCI-H23,> 100%
same,GI50,NCI-H23,1870 nM
same,inhibition at 10 µM,NCI-H322M,88%
same,GI50,NCI-H322M,1410 nM
same,inhibition at 10 µM,OVCAR-5,63.2%
same,GI50,OVCAR-5,2770 nM
same,inhibition at 10 µM,OVCAR-8,> 100%
same,GI50,OVCAR-8,1620 nM
same,inhibition at 10 µM,PC-3,82.2%
same,GI50,PC-3,2710 nM
same,inhibition at 10 µM,SF-268,99%
same,GI50,SF-268,1760 nM
same,inhibition at 10 µM,SK-MEL-2,34.3%
same,GI50,SK-MEL-2,1640 nM
same,inhibition at 10 µM,SNB-19,90.4%
same,GI50,SNB-19,2410 nM
same,inhibition at 10 µM,SR,77%
same,GI50,SR,1800 nM
same,inhibition at 10 µM,UACC-257,> 100%
same,GI50,UACC-257,2340 nM
"COc1ccc(-c2nc3cc(C(=O)NN=Cc4cc(OC)ccc4OC)ccc3[nH]2)cc1 [8m, N'-(2,5-Dimethoxybenzylidene)-2-(4-methoxyphenyl)-1H-benzo[d]imidazole-5-carbohydrazide]",inhibition at 10 µM,A498,< 5%
same,inhibition at 10 µM,A549/ATCC,13.7%
same,inhibition at 10 µM,ACHN,8.59%
same,inhibition at 10 µM,BT-549,17.2%
same,inhibition at 10 µM,CAKI-1,< 5%
same,inhibition at 10 µM,CCRF-CEM,45.9%
same,inhibition at 10 µM,HCC-2998,< 5%
same,inhibition at 10 µM,HCT-15,13.7%
same,inhibition at 10 µM,HL-60(TB),18.8%
same,inhibition at 10 µM,HOP-62,19.4%
same,inhibition at 10 µM,HS 578 T,< 5%
same,inhibition at 10 µM,HT29,25.4%
same,inhibition at 10 µM,LOX IMVI,18.8%
same,inhibition at 10 µM,MCF7,20.6%
same,inhibition at 10 µM,MDA-MB-231/ATCC,14.3%
same,inhibition at 10 µM,MOLT-4,35.8%
same,inhibition at 10 µM,NCI-H23,< 5%
same,inhibition at 10 µM,NCI-H322M,< 5%
same,inhibition at 10 µM,OVCAR-5,< 5%
same,inhibition at 10 µM,OVCAR-8,23.6%
same,inhibition at 10 µM,PC-3,13.6%
same,inhibition at 10 µM,SF-268,9.02%
same,inhibition at 10 µM,SK-MEL-2,11.1%
same,inhibition at 10 µM,SNB-19,< 5%
same,inhibition at 10 µM,SR,28.5%
same,inhibition at 10 µM,UACC-257,14.3%
"COc1ccc(-c2nc3cc(C(=O)NN=Cc4ccccc4O)ccc3[nH]2)cc1 [8h, N'-(2-Hydroxybenzylidene)-2-(4-methoxyphenyl)-1H-benzo[d]imidazole-5-carbohydrazide]",inhibition at 10 µM,A498,54.5%
same,GI50,A498,9210 nM
same,inhibition at 10 µM,A549/ATCC,> 100%
same,GI50,A549/ATCC,3030 nM
same,inhibition at 10 µM,ACHN,> 100%
same,GI50,ACHN,3020 nM
same,inhibition at 10 µM,BT-549,> 100%
same,GI50,BT-549,6990 nM
same,inhibition at 10 µM,CAKI-1,> 100%
same,GI50,CAKI-1,1780 nM
same,inhibition at 10 µM,CCRF-CEM,94.3%
same,GI50,CCRF-CEM,920 nM
same,inhibition at 10 µM,HCC-2998,99.6%
same,GI50,HCC-2998,4430 nM
same,inhibition at 10 µM,HCT-15,> 100%
same,GI50,HCT-15,1250 nM
same,inhibition at 10 µM,HL-60(TB),82.9%
same,GI50,HL-60(TB),2090 nM
same,inhibition at 10 µM,HOP-62,> 100%
same,GI50,HOP-62,5090 nM
same,inhibition at 10 µM,HS 578 T,> 100%
same,GI50,HS 578 T,940 nM
same,inhibition at 10 µM,HT29,> 100%
same,inhibition at 10 µM,LOX IMVI,98.7%
same,GI50,LOX IMVI,2230 nM
same,inhibition at 10 µM,MCF7,> 100%
same,GI50,MCF7,1670 nM
same,inhibition at 10 µM,MDA-MB-231/ATCC,98.7%
same,GI50,MDA-MB-231/ATCC,4480 nM
same,inhibition at 10 µM,MOLT-4,88.5%
same,GI50,MOLT-4,1700 nM
same,inhibition at 10 µM,NCI-H23,94.6%
same,GI50,NCI-H23,2060 nM
same,inhibition at 10 µM,NCI-H322M,96.7%
same,GI50,NCI-H322M,4230 nM
same,inhibition at 10 µM,OVCAR-5,> 100%
same,GI50,OVCAR-5,6550 nM
same,inhibition at 10 µM,OVCAR-8,> 100%
same,GI50,OVCAR-8,1970 nM
same,inhibition at 10 µM,PC-3,> 100%
same,GI50,PC-3,1770 nM
same,inhibition at 10 µM,SF-268,> 100%
same,GI50,SF-268,920 nM
same,GI50,SK-MEL-2,5170 nM
same,inhibition at 10 µM,SNB-19,> 100%
same,GI50,SNB-19,1760 nM
same,inhibition at 10 µM,SR,85.9%
same,GI50,SR,1170 nM
same,inhibition at 10 µM,UACC-257,85%
same,GI50,UACC-257,6320 nM
